Source: US20060293307A1, “Oxazolidinone derivatives as antimicrobials” (priority 2002, published 2006)
Converted amounts (≈) assume the structure as drawn. Like-named read-outs stand apart in the source and are kept apart here.

Columns and labels:
H. influenzae 451 = experiment: MIC against Haemophilus strains; type: cell-based; settings: s. No. 8, H. influenzae 451
H. influenzae R = experiment: MIC against Haemophilus strains; type: cell-based; settings: s. No. 4, H. influenzae R
H. influenzae ATCC 49247 = experiment: MIC against Haemophilus strains; type: cell-based; settings: s. No. 2, H. influenzae ATCC 49247
H. influenzae 49766 = experiment: MIC against Haemophilus strains; type: cell-based; settings: s. No. 6, H. influenzae 49766
H. influenzae βIac = experiment: MIC against Haemophilus strains; type: cell-based; settings: s. No. 3, H. influenzae βIac
H. influenzae 35056 = experiment: MIC against Haemophilus strains; type: cell-based; settings: s. No. 1, H. influenzae 35056
H. influenzae 1381 = experiment: MIC against Haemophilus strains; type: cell-based; settings: s. No. 7, H. influenzae 1381
H. influenzae P318 = experiment: MIC against Haemophilus strains; type: cell-based; settings: s. No. 10, H. influenzae P318
H. influenzae 23 = experiment: MIC against Haemophilus strains; type: cell-based; settings: s. No. 5, H. influenzae 23
H. influenzae 1745 = experiment: MIC against Haemophilus strains; type: cell-based; settings: s. No. 9, H. influenzae 1745
H. influenzae 474 = experiment: MIC against Haemophilus strains; type: cell-based; settings: s. No. 11, H. influenzae 474
[1] = Haemophilus influenzae, read-out: MIC

MIC (H. influenzae 451) [µg/mL]	MIC (H. influenzae R) [µg/mL]	MIC (H. influenzae ATCC 49247) [µg/mL]	MIC (H. influenzae 49766) [µg/mL]	MIC (H. influenzae βIac) [µg/mL]	MIC (H. influenzae 35056) [µg/mL]	MIC (H. influenzae 1381) [µg/mL]	MIC (H. influenzae P318) [µg/mL]	MIC (H. influenzae 23) [µg/mL]	MIC (H. influenzae 1745) [µg/mL]	MIC (H. influenzae 474) [µg/mL]	SMILES	other results
0.008 (≈ 0.0144 µM)	0.004 (≈ 0.00721 µM)	0.125 (≈ 0.225 µM)	0.008 (≈ 0.0144 µM)	<0.002	0.06 (≈ 0.108 µM)	0.008 (≈ 0.0144 µM)	0.015 (≈ 0.027 µM)	0.004 (≈ 0.00721 µM)	0.004 (≈ 0.00721 µM)	0.004 (≈ 0.00721 µM)	CO/N=C(\C(=O)N[C@@H]1C(=O)N2C(C(=O)O)=C(CSc3nc(=O)c(O)nn3C)CS[C@H]12)c1csc(N)n1 [Ceftriaxone, reference compound]	–
–	–	–	–	–	–	–	–	–	–	–	CC[C@H]1OC(=O)[C@H](C)C(=O)[C@H](C)[C@@H](O[C@@H]2O[C@H](C)C[C@H](N(C)C)[C@H]2O)[C@](C)(OC)C[C@@H](C)C(=O)[C@H](C)[C@H]2N(CCCCn3cnc(-c4cccnc4)c3)C(=O)O[C@]12C [Telithromycin, reference compound]	MIC (H. influenzae 451; [1]): 2 µg/mL (≈ 2.46 µM); MIC (H. influenzae R; [1]): 2 µg/mL (≈ 2.46 µM); MIC (H. influenzae ATCC 49247; Haemophilus influenzae, ATCC49247, read-out: MIC): 2 µg/mL (≈ 2.46 µM); MIC (H. influenzae 49766; [1]): 2 µg/mL (≈ 2.46 µM); MIC (H. influenzae βIac; [1]): 2 µg/mL (≈ 2.46 µM); MIC (H. influenzae 35056; [1]): 2 µg/mL (≈ 2.46 µM); MIC (H. influenzae 1381; [1]): 2 µg/mL (≈ 2.46 µM); MIC (H. influenzae P318; [1]): 1 µg/mL (≈ 1.23 µM); MIC (H. influenzae 23; [1]): 2 µg/mL (≈ 2.46 µM); MIC (H. influenzae 1745; [1]): 1 µg/mL (≈ 1.23 µM); MIC (H. influenzae 474; [1]): 2 µg/mL (≈ 2.46 µM)
–	–	–	–	–	–	–	–	–	–	–	O=C(CF)NC[C@H]1CN(c2ccc(N3CCN(c4ccc([N+](=O)[O-])s4)CC3)c(F)c2)C(=O)O1	melting point: 145 to 150 °C
0.015 (≈ 0.0415 µM)	0.015 (≈ 0.0415 µM)	0.015 (≈ 0.0415 µM)	0.03 (≈ 0.083 µM)	0.008 (≈ 0.0221 µM)	0.015 (≈ 0.0415 µM)	0.015 (≈ 0.0415 µM)	0.03 (≈ 0.083 µM)	0.015 (≈ 0.0415 µM)	0.03 (≈ 0.083 µM)	0.015 (≈ 0.0415 µM)	C[C@H]1COc2c(N3CCN(C)CC3)c(F)cc3c(=O)c(C(=O)O)cn1c23 [LevoFloxaci, reference compound]	–
